The record followed here is US8933130B2, “Treatment of vasomotor symptoms with selective estrogen receptor modulators” (Radius Health, Inc., priority 2006, dated 2015).

The test system of data set [1] is 19-day old Sprague-Dawley rats (uteri). As to conditions: rat, in vivo. As for the experimental part:
19-day old Sprague-Dawley rats were treated with either vehicle (95% corn oil/5% DMSO), estradiol (0.01 mg/kg), raloxifene (10 mg/kg), tamoxifen (1 mg/kg) or SERM A (100, 30, 10, 3, 1, or 0.3 mg/kg). The rats were dosed once daily by subcutaneous injection for three consecutive days. 24 hours after the last dose, the rats were euthanized, uteri were harvested and their wet weight recorded.

The subject of data set [2] is morphine-addicted ovariectomized rats. The data set is described as follows: Rodent model of hot flashes: tail skin temperature change after naloxone in morphine-addicted ovariectomized rats. The data set is classed as in vivo, rat. As to conditions: for Mean Tail Skin Temp.: tail skin temperature change after naloxone, ovariectomized rats, vehicle 5.6° C. As to the method:
The SERM, (R)-6-{2-{Ethyl[4-(2-ethylaminoethyl)benzyl]amino}-4-methoxyphenyl}-5,6,7,8-tetrahydronaphthalen-2-ol (“SERM A”), was evaluated for its ability to modulate vasomotor activity in a rodent model of hot flashes. (Merchenthaler, Maturitas, 1998 30:307-316). Briefly, ovariectomized adult rats were implanted with slow release morphine sulfate pellets on days 5 and 6 post-ovariectomy. Beginning at 4 days post-ovariectomy, once-daily treatment was initiated with a positive control, ethynyl estradiol (0.3 mg/kg), SERM A (1 and 10 mg/kg) or vehicle (95% corn oil, 5% DMSO by volume), delivered by subcutaneous injection. Treatment with the test agents was continued daily until the end of the study. On day 10, probes capable of continuously monitoring temperature were applied to the tail skin surface of the treated rats. The rats were then treated with naloxone, a morphine antagonist, and the change in skin temperature recorded for a period of 60 minutes.

Data set [3] relates to 19-day old Sprague-Dawley rats (uteri). The data set is described as follows: Antagonism of estradiol-mediated uterine stimulation: uterine wet weight in 19-day old rats. In kind it is in vivo, rat. As to conditions: SERM A 10, 3, 1, 0.3, 0.1, 0.03, 0.01 mg/kg combined with estradiol 0.01 mg/kg, s.c. once daily for three days; FIG. 3. As to the method:
19-day old Sprague-Dawley rats were treated with either vehicle (95% corn oil/5% DMSO), estradiol (0.01 mg/kg), or a combination of estradiol (0.01 mg/kg) and SERM A (10, 3, 1, 0.3, 0.1, 0.03, 0.01 mg/kg). The rats were dosed once daily by subcutaneous injection for three consecutive days. 24 hours after the last dose, the rats were euthanized, uteri were harvested and their wet weight recorded.

Take `CCNCCc1ccc(CN(CC)c2cc(OC)ccc2[C@@H]2CCc3cc(O)ccc3C2)cc1` [SERM A, (R)-6-{2-{Ethyl[4-(2-ethylaminoethyl)benzyl]amino}-4-methoxyphenyl}-5,6,7,8-tetrahydronaphthalen-2-ol]: the “uterine stimulation at doses effective at modulating vasomotor response” value in data set [1] was “lack of uterine stimulation”. In addition, the “increase in skin temperature after naloxone treatment, compared to vehicle” value in data set [2] (0.1 and 0.01 mg/kg) is given as “did not significantly reduce the increase in skin temperature”; in data set [2] (1 or 10 mg/kg s.c. once daily), “significantly reduced the increase in skin temperature”. Moreover, the “elevation of tail skin temperature associated with morphine addiction withdrawal” value in data set [2] (morphine-addicted ovariectomized rats, FIG. 1) is on record as “suppressing the elevation of tail skin temperature”. The “activity on reducing tail skin temperature increase, compared with positive control ethynyl estradiol” value in data set [2] (statistical analysis, SERM A 1 and 10 mg/kg vs ethynyl estradiol 0.3 mg/kg) is “no significant difference”. Also, the “Mean Tail Skin Temp.” value in data set [2] (1 mg/kg once daily s.c.) came to 2.1 °C; in data set [2] (10 mg/kg once daily s.c.), 2.0 °C. For the same compound, the “estradiol-mediated increase in uterine weight” value in data set [3] is on record as “decreased the estradiol-mediated increase in a dosage dependent manner”.

With `C#C[C@]1(O)CC[C@H]2[C@@H]3CCc4cc(O)ccc4[C@H]3CC[C@@]21C` [Ethynyl estradiol, ethynyl estradiol, reference compound], the “increase in skin temperature after naloxone treatment, compared to vehicle” value in data set [2] (0.3 mg/kg s.c. once daily) is “significantly reduced the increase in skin temperature”. In data set [2] (0.3 mg/kg once daily s.c.), the “Mean Tail Skin Temp.” value worked out at 1.2 °C.
